According to patent publication US20250115598A1 (Anaxis Pharma Pty Ltd, priority 2021, published 2025):

Key:
human RIPK1 = human RIPK1 (Homo sapiens (Human), UniProt Q13546); experiment: KINOMEscan binding assay, human RIPK1; conditions: Table 21
Method in brief: (§1)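 Compound dilutions (11 points, 3-fold, mostly from 30,000 nM, 1% DMSO final) competed with immobilized ligand for DNA- or phage-tagged protein, and bead-bound protein was measured by qPCR. Kd values came from Hill-equation fits with slope −1 (Levenberg-Marquardt).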

human MLKL (full length) = human MLKL (full length) (Homo sapiens (Human), UniProt Q8NB16); experiment: KINOMEscan binding assay, human MLKL (full length); conditions: KINOMEscan, Table 21; read-out: Human MLKL (full-length) (KD)
human MLKL (full length), sequence (Q8NB16 whole entry): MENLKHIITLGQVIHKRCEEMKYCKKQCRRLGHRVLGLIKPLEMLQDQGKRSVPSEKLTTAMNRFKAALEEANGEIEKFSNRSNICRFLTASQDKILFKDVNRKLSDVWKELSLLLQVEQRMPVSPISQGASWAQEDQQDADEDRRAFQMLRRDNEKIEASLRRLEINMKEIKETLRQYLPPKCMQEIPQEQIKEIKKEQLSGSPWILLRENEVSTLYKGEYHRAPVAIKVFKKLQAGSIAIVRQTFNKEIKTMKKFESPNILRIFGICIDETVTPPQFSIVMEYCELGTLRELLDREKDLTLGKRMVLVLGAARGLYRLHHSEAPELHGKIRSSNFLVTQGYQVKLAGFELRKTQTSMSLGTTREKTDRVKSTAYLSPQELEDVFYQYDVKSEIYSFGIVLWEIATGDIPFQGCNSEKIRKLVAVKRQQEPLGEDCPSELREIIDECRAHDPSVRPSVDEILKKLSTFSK
Method in brief: as §1

human RIPK3 = human RIPK3 (Homo sapiens (Human), UniProt Q9Y572); experiment: KINOMEscan binding assay, human RIPK3; conditions: Table 21
human RIPK3, sequence (Q9Y572 whole entry): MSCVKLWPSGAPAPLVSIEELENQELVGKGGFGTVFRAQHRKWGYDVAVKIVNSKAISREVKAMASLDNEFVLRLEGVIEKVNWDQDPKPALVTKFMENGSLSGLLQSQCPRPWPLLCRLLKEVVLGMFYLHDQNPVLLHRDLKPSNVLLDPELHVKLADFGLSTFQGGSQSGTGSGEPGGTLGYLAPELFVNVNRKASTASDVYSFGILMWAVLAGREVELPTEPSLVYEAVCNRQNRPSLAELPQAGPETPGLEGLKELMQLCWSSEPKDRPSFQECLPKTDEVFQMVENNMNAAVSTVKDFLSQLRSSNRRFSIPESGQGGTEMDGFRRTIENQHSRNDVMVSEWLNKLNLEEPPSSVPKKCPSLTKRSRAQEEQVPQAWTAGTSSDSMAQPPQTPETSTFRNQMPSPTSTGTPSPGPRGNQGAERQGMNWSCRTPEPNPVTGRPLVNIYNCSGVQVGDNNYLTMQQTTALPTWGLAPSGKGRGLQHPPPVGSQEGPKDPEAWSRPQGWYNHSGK
Method in brief: as §1

human RIPK1, sequence (Q13546 whole entry): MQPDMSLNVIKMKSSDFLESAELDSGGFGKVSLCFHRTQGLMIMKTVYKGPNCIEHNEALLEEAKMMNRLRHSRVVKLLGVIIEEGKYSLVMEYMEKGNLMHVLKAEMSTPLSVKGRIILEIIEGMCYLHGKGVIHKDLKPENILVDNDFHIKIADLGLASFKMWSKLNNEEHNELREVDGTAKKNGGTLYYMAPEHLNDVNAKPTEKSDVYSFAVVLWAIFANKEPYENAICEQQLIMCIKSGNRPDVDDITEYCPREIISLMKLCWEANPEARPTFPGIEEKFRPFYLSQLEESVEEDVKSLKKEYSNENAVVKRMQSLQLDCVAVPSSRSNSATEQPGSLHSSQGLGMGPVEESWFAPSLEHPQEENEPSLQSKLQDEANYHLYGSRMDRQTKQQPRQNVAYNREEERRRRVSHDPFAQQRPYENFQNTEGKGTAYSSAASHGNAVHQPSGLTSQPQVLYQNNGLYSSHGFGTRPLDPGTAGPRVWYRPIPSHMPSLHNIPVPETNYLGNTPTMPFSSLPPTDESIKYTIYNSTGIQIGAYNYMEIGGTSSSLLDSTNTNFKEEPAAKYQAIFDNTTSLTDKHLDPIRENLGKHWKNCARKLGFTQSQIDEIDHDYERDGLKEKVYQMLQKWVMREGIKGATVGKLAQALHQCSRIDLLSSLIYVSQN

**Q.** With `CC(C)N(C)CC(C)n1cc(-c2cnc(N)c3c(-c4ccc(NS(=O)(=O)C(F)F)c(O[C@@H](C)c5ccc(F)cc5)c4)nn(C)c23)cn1` (stereo partly drawn) [Compound 101, N-(4-(4-amino-7-(1-(1-(isopropyl(methyl)amino)propan-2-yl)-1H-pyrazol-4-yl)-1-methyl-1H-pyrazolo[4,3-c]pyridin-3-yl)-2-((S)-1-(4-fluorophenyl)ethoxy)phenyl)-1,1-difluoromethanesulfonamide] as the molecule, how does the Kd (human RIPK1) read?
**A.** > 10 µM

**Q.** And the Kd (human MLKL (full length))?
**A.** < 0.001 µM

**Q.** What about the Kd (human RIPK3) of the same molecule?
**A.** > 10 µM

**Q.** For `COCC(Oc1cc(-c2nn(C)c3c(-c4cnn(C5CCOCC5)c4)cnc(N)c23)ccc1NS(=O)(=O)C(F)F)c1ccc(F)cc1` (racemic) [Compound 102, N-(4-(4-amino-1-methyl-7-(1-(tetrahydro-2H-pyran-4-yl)-1H-pyrazol-4-yl)-1H-pyrazolo[4,3-c]pyridin-3-yl)-2-(1-(4-fluorophenyl)-2-methoxyethoxy)phenyl)-1,1-difuoromethane-sulfonamide], which Kd (human RIPK1) is on record?
**A.** > 10 µM

**Q.** And the Kd (human MLKL (full length))?
**A.** < 0.001 µM

**Q.** And the Kd (human RIPK3)?
**A.** > 10 µM

**Q.** What does the source list for `Cn1nc(-c2ccc(NS(=O)(=O)C(F)F)cc2OCc2cccc(F)c2)c2c(N)ncc(-c3cnn(C4CCOCC4)c3)c21` [Compound 135, N-(4-(4-amino-1-methyl-7-(1-(tetrahydro-2H-pyran-4-yl)-1H-pyrazol-4-yl)-1H-pyrazolo[4,3-c]pyridin-3-yl)-3-((3-fluorobenzyl)oxy)phenyl)-1,1-difluoro-methanesulfonamide]?
**A.** Kd (human RIPK1): > 10 µM; Kd (human MLKL (full length)): < 0.001 µM; Kd (human RIPK3): > 10 µM

**Q.** Which Kd (human RIPK1) does the source give for `C[C@H](Oc1cc(-c2nn(C)c3c(-c4cnn(C5COC5)c4)cnc(N)c23)ccc1NS(=O)(=O)C(F)F)c1ccc(F)cc1` [Compound 38, (S)-N-(4-(4-amino-1-methyl-7-(1-(oxetan-3-yl)-1H-pyrazol-4-yl)-1H-pyrazolo[4,3-c]pyridin-3-yl)-2-(1-(4-fluorophenyl)ethoxy)phenyl)-1,1-difluoromethanesulfonamide] here?
**A.** > 10 µM

**Q.** What about the Kd (human MLKL (full length)) of the same molecule?
**A.** < 0.001 µM

**Q.** What about the Kd (human RIPK3) of the same molecule?
**A.** > 10 µM

**Q.** Which Kd (human RIPK1) does the source give for `Cc1cc(-c2ccc(NS(=O)(=O)C(F)F)c(OCc3ccc(F)cc3)c2)c2c(N)n[nH]c2n1` [Compound 70, N-(4-(3-Amino-6-methyl-1H-pyrazolo[3,4-b]pyridin-4-yl)-2-((4-fluorophenyl)methoxy)phenyl)-1,1-difluoromethanesulfonamide] here?
**A.** > 10 µM

**Q.** What about the Kd (human MLKL (full length)) of the same molecule?
**A.** < 0.001 µM

**Q.** What about the Kd (human RIPK3) of the same molecule?
**A.** > 10 µM

**Q.** `Cn1nc(-c2ccc(NS(=O)(=O)C(F)F)c(OCc3ccc(Cl)c(F)c3)c2)c2c(N)ncc(-c3cnn(C4CCOCC4)c3)c21` [Compound 132, N-(4-(4-amino-1-methyl-7-(1-(tetrahydro-2H-pyran-4-yl)-1H-pyrazol-4-yl)-1H-pyrazolo[4,3-c]pyridin-3-yl)-2-((4-chloro-3-fluoro-benzyl)oxy)phenyl)-1,1-difluoromethane-sulfonamide] was tested. Which Kd (human RIPK1) did it give?
**A.** > 10 µM

**Q.** And the Kd (human MLKL (full length))?
**A.** < 0.001 µM

**Q.** And the Kd (human RIPK3)?
**A.** > 10 µM

**Q.** With `C[C@H](Oc1cc(-c2nn(C)c3c(-c4cnn(C5CCN(C)C(C)(C)C5)c4)cnc(N)c23)ccc1NS(=O)(=O)C(F)F)c1ccc(Cl)cc1` (stereo partly drawn) [Compound 159, N-(4-(4-amino-1-methyl-7-(1-(1,2,2-trimethylpiperidin-4-yl)-1H-pyrazol-4-yl)-1H-pyrazolo[4,3-c]pyridin-3-yl)-2-((S)-1-(4-chloro-phenyl)ethoxy)phenyl)-1,1-difluoro-methanesulfonamide] as the molecule, how does the Kd (human RIPK1) read?
**A.** > 10 µM

**Q.** And the Kd (human MLKL (full length))?
**A.** < 0.001 µM

**Q.** What about the Kd (human RIPK3) of the same molecule?
**A.** > 10 µM

**Q.** `C[C@H](Oc1cc(-c2nn(C)c3c(-c4cnn(C(F)F)c4)cnc(N)c23)ccc1NS(=O)(=O)C(F)F)c1ccc(F)cc1` [Compound 123, (S)-N-(4-(4-amino-7-(1-(difluoromethyl)-1H-pyrazol-4-yl)-1-methyl-1H-pyrazolo[4,3-c]pyridin-3-yl)-2-(1-(4-fluorophenyl)ethoxy)phenyl)-1,1-difluoromethanesulfonamide] was tested. Which Kd (human RIPK1) did it give?
**A.** > 10 µM

**Q.** And the Kd (human MLKL (full length))?
**A.** < 0.001 µM

**Q.** What about the Kd (human RIPK3) of the same molecule?
**A.** > 10 µM

**Q.** How did the Kd (human RIPK1) turn out when `C[C@H](Oc1cc(-c2nn(C)c3c(-c4cnn(C5C[C@@H]6CN(C)C[C@@H]6C5)c4)cnc(N)c23)ccc1NS(=O)(=O)C(F)F)c1ccc(F)cc1` (stereo partly drawn) [Compound 164, N-(4-(4-amino-1-methyl-7-(1-((3aR,6aS)-2-methyloctahydrocyclo-penta[c]pyrrol-5-yl)-1H-pyrazol-4-yl)-1H-pyrazolo[4,3-c]pyridin-3-yl)-2-((S)-1-(4-fluorophenyl)eth-oxy)phenyl)-1,1-difluoromethane-sulfonamide] was run?
**A.** > 10 µM

**Q.** What about the Kd (human MLKL (full length)) of the same molecule?
**A.** < 0.001 µM

**Q.** What about the Kd (human RIPK3) of the same molecule?
**A.** > 10 µM

**Q.** Which results are given for `C[C@H](Oc1cc(-c2nn(C)c3c(-c4ccncn4)cnc(N)c23)ccc1NS(=O)(=O)C(F)F)c1ccc(F)cc1` [Compound 40, (S)—N-(4-(4-amino-1-methyl-7-(pyrimidin-4-yl)-1H-pyrazolo[4,3-c]pyridin-3-yl)-2-(1-(4-fluorophenyl)ethoxy)phenyl)-1,1-difluoromethanesulfonamide]?
**A.** Kd (human RIPK1): > 10 µM; Kd (human MLKL (full length)): < 0.001 µM; Kd (human RIPK3): > 10 µM

**Q.** Which results are given for `C[C@H](Oc1cc(-c2cnn3c(-c4ccncc4)cnc(N)c23)ccc1NS(=O)(=O)C(F)F)c1ccc(F)cc1` [Compound 39, (S)-N-(4-(4-amino-7-(pyridin-4-yl)pyrazolo[1,5-a]pyrazin-3-yl)-2-(1-(4-fluoro-phenyl)ethoxy)phenyl)-1,1-difluoromethane-sulfonamide]?
**A.** Kd (human RIPK1): > 10 µM; Kd (human MLKL (full length)): < 0.001 µM; Kd (human RIPK3): > 10 µM

**Q.** Which results are given for `Cn1nc(-c2ccc(NS(=O)(=O)C(F)F)c(OCc3nccs3)c2)c2c(N)ncc(-c3cnn(C4CCOCC4)c3)c21` [Compound 143, N-(4-(4-amino-1-methyl-7-(1-(tetrahydro-2H-pyran-4-yl)-1H-pyrazol-4-yl)-1H-pyrazolo[4,3-c]pyridin-3-yl)-2-(thiazol-2-yl-methoxy)phenyl)-1,1-difluoromethane-sulfonamide]?
**A.** Kd (human RIPK1): > 10 µM; Kd (human MLKL (full length)): < 0.001 µM; Kd (human RIPK3): > 10 µM

**Q.** `C[C@H](Oc1cc(-c2nn(C)c3c(-c4ccc5c(c4)n(C)c(=O)n5C)cnc(N)c23)ccc1NS(=O)(=O)C(F)F)c1ccc(F)cc1` [Compound 161, (S)-N-(4-(4-amino-7-(1,3-dimethyl-2-oxo-2,3-dihydro-1H-benzo[d]imidazol-5-yl)-1-methyl-1H-pyrazolo[4,3-c]pyridin-3-yl)-2-(1-(4-fluorophenyl)ethoxy)phenyl)-1,1-difluoromethanesulfonamide] was tested. Which Kd (human RIPK1) did it give?
**A.** > 10 µM

**Q.** What about the Kd (human MLKL (full length)) of the same molecule?
**A.** < 0.001 µM

**Q.** And the Kd (human RIPK3)?
**A.** > 10 µM

**Q.** Which Kd (human RIPK1) does the source give for `C[C@H](Oc1cc(-c2ccnc3[nH]nc(N)c23)ccc1NS(=O)(=O)C(F)F)c1ccc(F)cc1` [Compound 72, N-(4-(3-Amino-1H-pyrazolo[3,4-b]pyridin-4-yl)-2-((1 S)-1-(4-fluorophenyl)ethoxy)phenyl)-1,1-difluoromethanesulfonamide] here?
**A.** > 10 µM

**Q.** And the Kd (human MLKL (full length))?
**A.** < 0.001 µM

**Q.** What about the Kd (human RIPK3) of the same molecule?
**A.** > 10 µM

**Q.** How did the Kd (human RIPK1) turn out when `C[C@H](Oc1cc(-c2nn(C)c3c(-c4cnn(C5CC(C)(C)N(C)C(C)(C)C5)c4)cnc(N)c23)ccc1NS(=O)(=O)C(F)F)c1ccc(F)cc1` [Compound 162, (S)-N-(4-(4-amino-1-methyl-7-(1-(1,2,2,6,6-pentamethylpiperidin-4-yl)-1H-pyrazol-4-yl)-1H-pyrazolo[4,3-c]pyridin-3-yl)-2-(1-(4-fluorophenyl)ethoxy)phenyl)-1,1-difluoromethanesulfonamide] was run?
**A.** > 10 µM

**Q.** What about the Kd (human MLKL (full length)) of the same molecule?
**A.** < 0.001 µM

**Q.** What about the Kd (human RIPK3) of the same molecule?
**A.** > 10 µM

**Q.** How did the Kd (human RIPK1) turn out when `Cn1nc(-c2ccc(NS(=O)(=O)C(F)F)c(OCc3cccc(Cl)c3)c2)c2c(N)ncc(-c3cnn(C4CCOCC4)c3)c21` [Compound 130, N-(4-(4-amino-1-methyl-7-(1-(tetrahydro-2H-pyran-4-yl)-1H-pyrazol-4-yl)-1H-pyrazolo[4,3-c]pyridin-3-yl)-2-((3-chlorobenzyl)oxy)phenyl)-1,1-difluoromethane-sulfonamide] was run?
**A.** > 10 µM

**Q.** And the Kd (human MLKL (full length))?
**A.** < 0.001 µM

**Q.** What about the Kd (human RIPK3) of the same molecule?
**A.** > 10 µM

**Q.** Which results are given for `C[C@H](Oc1cc(-c2nn(C)c3c(-c4cnn(CCN(C)C)c4)cnc(N)c23)ccc1NS(=O)(=O)C(F)F)c1ccc(F)cc1` [Compound 100, (S)-N-(4-(4-amino-7-(1-(2-(dimethylamino)ethyl)-1H-pyrazol-4-yl)-1-methyl-1H-pyrazolo[4,3-c]pyridin-3-yl)-2-(1-(4-fluorophenyl)ethoxy)phenyl)-1,1-difluoromethanesulfonamide]?
**A.** Kd (human RIPK1): > 10 µM; Kd (human MLKL (full length)): < 0.001 µM; Kd (human RIPK3): > 10 µM

**Q.** For `C[C@H](Oc1cc(-c2nn(C)c3c(C#CC4CCNCC4)cnc(N)c23)ccc1NS(=O)(=O)C(F)F)c1ccc(F)cc1` [Compound 79, (S)—N-(4-(4-amino-1-methyl-7-(piperidin-4-ylethynyl)-1H-pyrazolo[4,3-c]pyridin-3-yl)-2-(1-(4-fluorophenyl)ethoxy)phenyl)-1,1-difluoromethanesulfonamide], which Kd (human RIPK1) is on record?
**A.** > 10 µM

**Q.** And the Kd (human MLKL (full length))?
**A.** < 0.001 µM

**Q.** And the Kd (human RIPK3)?
**A.** > 10 µM

**Q.** With `C[C@H](Oc1cc(-c2nn(C)c3c(-c4cnn(C5CC6(CNC6)C5)c4)cnc(N)c23)ccc1NS(=O)(=O)C(F)F)c1ccc(F)cc1` [Compound 78, (S)-N-(4-(7-(1-(2-azaspiro[3.3]heptan-6-yl)-1H-pyrazol-4-yl)-4-amino-1-methyl-1H-pyrazolo[4,3-c]pyridin-3-yl)-2-(1-(4-fluorophenyl)ethoxy)phenyl)-1,1-difluoromethane-sulfonamide] as the molecule, how does the Kd (human RIPK1) read?
**A.** > 10 µM

**Q.** And the Kd (human MLKL (full length))?
**A.** < 0.001 µM

**Q.** What about the Kd (human RIPK3) of the same molecule?
**A.** > 10 µM

**Q.** For `CC#Cc1cnc(N)c2c(-c3ccc(NS(=O)(=O)C(F)F)c(O[C@@H](C)c4ccc(F)cc4)c3)nn(C)c12` [Compound 56, (S)-N-(4-(4-amino-1-methyl-7-(prop-1-yn-1-yl)-1H-pyrazolo[4,3-c]pyridin-3-yl)-2-(1-(4-fluorophenyl)ethoxy)phenyl)-1,1-difluoromethane-sulfonamide], which Kd (human RIPK1) is on record?
**A.** > 10 µM

**Q.** What about the Kd (human MLKL (full length)) of the same molecule?
**A.** < 0.001 µM

**Q.** What about the Kd (human RIPK3) of the same molecule?
**A.** > 10 µM
